For 16 compounds, inhibition results are on record in ChEMBL document CHEMBL3046777, “Synthesis of new phenylcarbamoylbenzoic acid derivatives and evaluation of their in vitro antioxidant activity” (Med Chem Res, 2012).

A short description of this assay: Antioxidant activity assessed as […] by ABTS-spectrophotometric assay. The settings on record: dose or concentration not given here. Details: concentration or dose not given beside the values. In kind it is functional.

As for `C/C(=N\NC(=O)c1ccc(NC(=O)c2ccccc2C(=O)O)cc1)c1ccc(NC(=O)c2ccccc2C(=O)O)cc1`, the inhibition (in general, how much of the control response was suppressed) came to 9.95%. The same measure for `C/C(=N\N=C\c1ccccc1)c1ccc(NC(=O)c2ccccc2C(=O)O)cc1`: 12.9%; for `CCOC(=O)c1ccc(NC(=O)c2ccccc2C(=O)O)cc1`: 4.09%. For `C/C(=N\N1C(=O)c2ccccc2C1=O)c1ccc(NC(=O)c2ccccc2C(=O)O)cc1`, the inhibition stood at 4.19%. For the compound `C/C(=N\N=C(/C)c1ccc(NC(=O)c2ccccc2C(=O)O)cc1)c1ccccc1`, the inhibition stood at 9.85%.

In the case of `COc1ccc(/C=N/NC(=O)c2ccc(NC(=O)c3ccccc3C(=O)O)cc2)cc1`, the inhibition came to 4.29%. As for `O=C(N/N=C/c1ccc(Cl)cc1)c1ccc(NC(=O)c2ccccc2C(=O)O)cc1`, the inhibition was determined as 19.5%.

Consider `C/C(=N\NC(=O)c1ccc(NC(=O)c2ccccc2C(=O)O)cc1)c1ccccc1`, for which the inhibition was found to be 2.63%.

On to `O=C(N/N=C/c1ccccc1)c1ccc(NC(=O)c2ccccc2C(=O)O)cc1`, for which the inhibition amounted to 8.78%. As to `C/C(=N\N=C(/C)c1ccc(NC(=O)c2ccccc2C(=O)O)cc1)c1ccc(NC(=O)c2ccccc2C(=O)O)cc1`, the inhibition was 10.6%. In the case of `CC(=O)c1ccc(NC(=O)c2ccccc2C(=O)O)cc1`, the inhibition turned out to be 7.42%. As to `C/C(=N\N)c1ccc(NC(=O)c2ccccc2C(=O)O)cc1`, the inhibition was 18.2%. To `O=C(NN1C(=O)c2ccccc2C1=O)c1ccc(NC(=O)c2ccccc2C(=O)O)cc1` belongs 8.39%. To `COc1ccc(/C=N/N=C(\C)c2ccc(NC(=O)c3ccccc3C(=O)O)cc2)cc1` belongs 23%. With `C/C(=N\N=C\c1ccc(Cl)cc1)c1ccc(NC(=O)c2ccccc2C(=O)O)cc1`, the inhibition came out at 24.8%. The same measure for `NNC(=O)c1ccc(NC(=O)c2ccccc2C(=O)O)cc1`: 55.2%.
